Laboratory results taken from paper PMC2365101, “Anti-Inflammatory Activity of (Polyphenolic)-Sulfonates and Their Sodium Salts in Rodents” (Metal-Based Drugs, 1998).

Target: T1, IL-1 high affinity receptor on L929 fibroblasts (Mus musculus, UniProt P13504)
T1 construct: host or cells: L929 mouse fibroblasts
T1 sequence (P13504 20-576): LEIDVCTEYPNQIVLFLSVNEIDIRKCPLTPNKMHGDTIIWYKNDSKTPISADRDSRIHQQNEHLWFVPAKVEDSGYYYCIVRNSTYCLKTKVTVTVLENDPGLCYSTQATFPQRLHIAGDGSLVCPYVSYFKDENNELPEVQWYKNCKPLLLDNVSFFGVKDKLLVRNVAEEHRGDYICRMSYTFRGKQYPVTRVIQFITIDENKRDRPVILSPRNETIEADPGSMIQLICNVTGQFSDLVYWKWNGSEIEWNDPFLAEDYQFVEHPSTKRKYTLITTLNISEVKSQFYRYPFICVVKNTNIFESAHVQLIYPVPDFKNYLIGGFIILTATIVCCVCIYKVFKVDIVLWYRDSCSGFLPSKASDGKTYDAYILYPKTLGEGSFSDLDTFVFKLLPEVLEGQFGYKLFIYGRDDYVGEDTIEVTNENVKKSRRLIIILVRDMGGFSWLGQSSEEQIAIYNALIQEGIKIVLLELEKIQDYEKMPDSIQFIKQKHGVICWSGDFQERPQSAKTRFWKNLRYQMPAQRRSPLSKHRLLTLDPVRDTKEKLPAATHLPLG
Assay: 125I-IL-1 high affinity binding to L929 fibroblasts
Settings: for 125I-IL-1 binding, Percent of Control: at 8 Hours (table title), N=6; for reduction of IL-1 high affinity receptor binding: 5 to 50 μM, 5 hr
Excerpt: Few reports in the literature indicate interaction at these receptor sites other than by peptides or antibodies. […] Blocking these receptors is desirable because the entire inflammation cascade of events is triggered by the early release of TNFa and IL-1. […] Radioisotopes were obtained from New England Nuclear [Dupont, Boston, MA] and substrates and co- factors were obtained from Sigma Chemical Co. [St. Louis, MO]. […] Cell lines were obtained from American Type Culture Collection [Rockville, MD]. In Vivo Tests Anti-inflammatory screen in mice: Male CF male mice weighing 28-32g obtained from Jackson Lab. [Bar Harbor, […]] were used to screen agents at 8 or 16 mg/kg intraperitoneal [I.P.] x 2 administered 3 hr and 30 min prior to administering the irritant, according to Winter's protocol. Evaluation of the induced edema was made by injecting 2% carrageenan in 0.9% saline into the plantar region of the foot. The opposite foot injected with 0.9% isotonic saline was used as a base line. […] Salmonella abortus equi [Lot # 69F4003] […] Drugs from 2 to 16 mg/kg, I.P. were administered 2 hr prior and 2 hr post-injection of the LPS and then subsequently for every 24 hr for the length ofthe animals' lives. Deaths were recorded every 12 hr and continued for 96 hr. […] In vitro TNFa andIL-1 Measurements and Cellular Regulation IC-21 mouse macrophages were maintained in RPMI-1640 + 10% FCS + P/S. After the cells had grown to confluency, E. coli LPS at 10 Ixg/ml was added to the medium. Agents were incubated at 12.5 to 100 µM final concentration for 18 hr. The medium (100 btl) was collected for TNFCt determinations. Interleukin-1 [IL-1] release was determined using P388D1 cells which were maintained in RPMI-1640 + 10% FCS + P/S. The L929 bioassay was used to quantitate the TNF and the IL-1 levels. The L929 mouse fibroblasts were grown in DMEM + 10% FCS + P/S to confluency in 96 well plates and incubated with 100 tl ofmedium from IC-20 or P388D cells after 18 hr. The cells were stained with 0.2% crystal violet in 20% MeOH and read at 580 nm using a Molecular Devices scanner (SOFT-max program). […] The cells were washed repeatedly with isotonic saline, pH.7.2 and aliquots counted. Prostaglandin cylcooxygenase activity Mouse J774AI macrophages maintained in Dulbecco's modified Eagle's medium + 15% FCS + P/S. Cells (5 x 106) were incubated with agents (5 to 100 ].tM final concentration) and 3H-arachidonic acid (100 Ci/mol) for 60 min at 37C in a CO2 incubator. The reaction was terminated with 2N HCI, the mixture extracted 2 X with ether, and the organic layer evaporated.

CC(=O)Oc1c2cc(S(=O)(=O)[O-])cc1Cc1cc(S(=O)(=O)[O-])cc(c1OC(C)=O)Cc1cc(S(=O)(=O)[O-])cc(c1OC(C)=O)Cc1cc(S(=O)(=O)[O-])cc(c1OC(C)=O)Cc1cc(S(=O)(=O)[O-])cc(c1OC(C)=O)Cc1cc(S(=O)(=O)[O-])cc(c1OC(C)=O)Cc1cc(S(=O)(=O)[O-])cc(c1OC(C)=O)Cc1cc(S(=O)(=O)[O-])cc(c1OC(C)=O)C2.[Na+].[Na+].[Na+].[Na+].[Na+].[Na+].[Na+].[Na+] [Compound 8]
125I-IL-1 binding, Percent of Control (5 μM): 9+ 1% of Control | 125I-IL-1 binding, Percent of Control (12.5 μM): 10 + 5% of Control | 125I-IL-1 binding, Percent of Control (25 μM): 9 + 5% of Control | 125I-IL-1 binding, Percent of Control (50 μM): 7 + 4% of Control | reduction of IL-1 high affinity receptor binding: greater than 90%

COc1c2cc(S(=O)(=O)[O-])cc1Cc1cc(S(=O)(=O)[O-])cc(c1OC)Cc1cc(S(=O)(=O)[O-])cc(c1OC)Cc1cc(S(=O)(=O)[O-])cc(c1OC)Cc1cc(S(=O)(=O)[O-])cc(c1OC)Cc1cc(S(=O)(=O)[O-])cc(c1OC)C2.[Na+].[Na+].[Na+].[Na+].[Na+].[Na+] [Compound 6]
125I-IL-1 binding, Percent of Control (5 μM): 3+2% of Control | 125I-IL-1 binding, Percent of Control (12.5 μM): 3 + 2% of Control | 125I-IL-1 binding, Percent of Control (25 μM): 3 + 2% of Control | 125I-IL-1 binding, Percent of Control (50 μM): 3 + 1% of Control | reduction of IL-1 high affinity receptor binding: greater than 90%
